Results as given in patent US20180353462A1, “[…] AGENTS […] FLAVONOID DERIVATIVES TARGETING KINASES, SIRTUINS AND ONCOGENIC AGENTS FOR THE TREATMENT OF CANCERS” (priority 2015, published 2018).

Experiments:
CK2a2 = target: T1, CK2a2 (Homo sapiens, UniProt P19784); test: Kinase competition binding assay, CK2a2; details: Table 1 kinase panel
T1 construct: made in house
Description: (§1) Cannabis flavonoids and their analogs were subjected to kinase inhibition assay. The compounds were first screened at a single concentration of 10 μM in the primary assay. […]. To determine the kd or IC50 values, competition binding assays were established, authenticated and executed as described previously. Fabian et al., “A Small Molecule-Kinase Interaction Map For Clinical Kinase Inhibitors.”, Nat Biotechnol, 23(3):329-36, Epub (2005). See also, Karaman et al., “A Quantitative Analysis Of Kinase Inhibitor Selectivity”, Nat. Biotechnol. […] For most assays, kinases were fused to T7 phage strains (Fabian, supra) and for the other assays, kinases were produced in HEK-293 cells after which they were tagged with DNA for quantitative PCR detection. In general, full-length constructs were used for small, single domain kinases, and catalytic domain constructs for large multi-domain kinases. The binding assays utilized streptavidin-coated magnetic beads treated with biotinylated small molecule ligands for 30 minutes at room temperature which generated affinity resins for the kinase assays. The liganded beads were blocked with excess biotin and washed with blocking buffer (SeaBlock (Pierce), 1% BSA, 0.05% Tween 20, 1 mM DTT) to remove unbound ligand and to reduce non-specific phage binding. […] Test compounds were prepared as 40× stocks in 100% DMSO and diluted directly into the assay (Final DMSO concentration=2.5%). All reactions were performed in polypropylene 384-well plates in a final volume of 0.04 ml. […] The beads were then re-suspended in elution buffer (1×PBS, 0.05% Tween 20, 0.5 μM non-biotinylated affinity ligand) and incubated at room temperature with shaking for 30 minutes. The kinase concentration in the eluates was measured by quantitative PCR. An illustration of the kinase interaction process is presented below. Kd/IC50 values were determined using a standard dose response curve using the hill equation. Curves were fitted using a non-linear least square fit with the Levenberg-Marquardt algorithm.
(§2) The compound(s) were screened at 10 μM and results for primary screen binding interactions are reported as ‘% Ctrl’, where lower numbers indicate stronger hits in the matrix.

c-Kit(Y823D) = target: T2, c-Kit(Y823D) (Homo sapiens, UniProt P10721, Y823D); test: Kinase competition binding assay, c-Kit(Y823D); details: Table 1 kinase panel
T2 construct: made in house
Description: as §1, §2

FLT3(D835V) = target: T3, FLT3(D835V) (Homo sapiens, UniProt P36888, D835V); test: Kinase competition binding assay, FLT3(D835V); details: Table 1 kinase panel
T3 construct: made in house
T3 sequence (P36888 27-993 D835V): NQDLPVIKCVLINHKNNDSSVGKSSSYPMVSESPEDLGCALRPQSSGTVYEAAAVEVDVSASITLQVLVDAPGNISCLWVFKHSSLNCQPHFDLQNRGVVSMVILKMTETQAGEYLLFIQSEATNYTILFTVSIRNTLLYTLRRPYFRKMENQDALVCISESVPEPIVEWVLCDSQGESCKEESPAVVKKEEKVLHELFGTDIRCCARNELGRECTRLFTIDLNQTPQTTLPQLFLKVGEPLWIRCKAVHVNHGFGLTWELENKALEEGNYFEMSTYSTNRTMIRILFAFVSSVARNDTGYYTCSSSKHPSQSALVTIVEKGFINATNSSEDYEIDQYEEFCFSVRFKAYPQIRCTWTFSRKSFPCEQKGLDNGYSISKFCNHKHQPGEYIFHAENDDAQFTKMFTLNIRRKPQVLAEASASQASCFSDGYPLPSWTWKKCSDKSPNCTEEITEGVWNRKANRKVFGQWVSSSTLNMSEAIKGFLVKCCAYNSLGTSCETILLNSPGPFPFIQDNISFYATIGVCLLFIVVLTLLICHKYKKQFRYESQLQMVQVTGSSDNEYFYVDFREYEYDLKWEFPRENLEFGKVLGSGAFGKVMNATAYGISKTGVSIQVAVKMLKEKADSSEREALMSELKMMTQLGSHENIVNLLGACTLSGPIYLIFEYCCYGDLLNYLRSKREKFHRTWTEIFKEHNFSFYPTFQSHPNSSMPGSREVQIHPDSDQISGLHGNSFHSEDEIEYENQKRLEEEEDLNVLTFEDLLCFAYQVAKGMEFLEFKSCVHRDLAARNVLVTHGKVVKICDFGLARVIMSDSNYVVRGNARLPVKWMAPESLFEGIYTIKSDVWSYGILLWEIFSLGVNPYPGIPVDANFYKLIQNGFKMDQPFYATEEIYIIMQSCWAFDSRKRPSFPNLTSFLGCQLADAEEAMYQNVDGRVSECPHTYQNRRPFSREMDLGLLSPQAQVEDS
Description: as §1, §2

PIM-1 = target: T4, PIM-1 (Homo sapiens, UniProt P11309); test: Kinase competition binding assay, PIM-1; details: Table 1 kinase panel
T4 construct: full-length constructs were used for small, single domain kinases; T7 phage fusion (most assays) or DNA tag for qPCR (HEK-293-made kinases); made in house
Description: as §1, §2

PIM-3 = target: T5, PIM-3 (Homo sapiens, UniProt Q86V86); test: Kinase competition binding assay, PIM-3; details: Table 1 kinase panel
T5 construct: full-length constructs were used for small, single domain kinases; T7 phage fusion (most assays) or DNA tag for qPCR (HEK-293-made kinases); made in house
Description: as §1, §2

SIRT-2 = target: T6, SIRT-2 (Homo sapiens, UniProt Q8IXJ6); test: Inhibition of sirtuins, SIRT-2; assay type: biochemical; details: Table 3 SIRT
T6 sequence (Q8IXJ6 1-389): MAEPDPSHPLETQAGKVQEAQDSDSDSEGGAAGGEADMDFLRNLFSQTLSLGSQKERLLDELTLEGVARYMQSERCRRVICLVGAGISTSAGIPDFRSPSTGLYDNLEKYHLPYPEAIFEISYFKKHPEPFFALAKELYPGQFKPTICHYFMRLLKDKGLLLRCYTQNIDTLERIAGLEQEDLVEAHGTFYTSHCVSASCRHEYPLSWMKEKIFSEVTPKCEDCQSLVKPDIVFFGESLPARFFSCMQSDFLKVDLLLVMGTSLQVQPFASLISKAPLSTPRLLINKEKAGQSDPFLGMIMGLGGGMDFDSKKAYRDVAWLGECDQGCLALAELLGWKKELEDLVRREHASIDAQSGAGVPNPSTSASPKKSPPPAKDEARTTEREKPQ
From the text: (§3) Inhibition of Sirtuins, Matrix Metalloproteinase, Bromodomains was Also Confirmed Using Standard Protocols and the Results are Present in Table 2.

SIRT-5 = target: T7, SIRT-5 (Homo sapiens, UniProt Q9NXA8); test: Inhibition of sirtuins, SIRT-5; assay type: biochemical; details: Table 3 SIRT
T7 sequence (Q9NXA8 37-310): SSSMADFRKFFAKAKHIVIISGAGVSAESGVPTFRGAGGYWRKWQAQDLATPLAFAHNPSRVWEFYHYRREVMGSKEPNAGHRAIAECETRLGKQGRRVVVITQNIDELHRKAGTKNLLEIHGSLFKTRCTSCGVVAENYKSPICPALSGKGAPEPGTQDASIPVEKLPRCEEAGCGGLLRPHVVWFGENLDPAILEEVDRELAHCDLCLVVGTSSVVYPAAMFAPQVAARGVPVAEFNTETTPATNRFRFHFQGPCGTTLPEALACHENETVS
From the text: as §3

Structure (SMILES)	IC50 (CK2a2)	IC50 (c-Kit(Y823D))	IC50 (FLT3(D835V))	IC50 (PIM-1)	IC50 (PIM-3)	IC50 (SIRT-2)	IC50 (SIRT-5)
COc1cc(-c2cc(=O)c3c(O)c(C/C=C(\C)CCC=C(C)C)c(O)cc3o2)ccc1O [FBL-03A]	350 nM	> 20000 nM	220 nM	> 20000 nM	> 20000 nM	2.57 µM	523 µM
COc1cc(-c2cc(=O)c3c(O)c(CC=C(C)C)c(O)cc3o2)ccc1O [FBL-03B]	477 nM	244 nM	< 1000 nM	–	173 nM	10.8 µM	104 µM
COc1cc(-c2cc(=O)c3c(O)cc(O)c(C/C=C(\C)CCC=C(C)C)c3o2)ccc1O [FBL-03C]	19 nM	> 20000 nM	190 nM	> 1000 nM	> 1000 nM	14 µM	132 µM
COc1ccc(-c2cc(=O)c3c(O)c(C/C=C(\C)CCC=C(C)C)c(O)cc3o2)cc1OC [FBL-03D]	> 30000 nM	> 30000 nM	> 30000 nM	> 30000 nM	> 30000 nM	2.38 µM	–
COc1cc(-c2cc(=O)c3c(O)cc(O)c(CC=C(C)C)c3o2)ccc1O [FBL-03G]	9.7 nM	84 nM	< 1000 nM	78 nM	35 nM	24.1 µM	974 µM
